# Data from patent publication US20080275058A1, “N-Substituted-1H-Quinoline-2,4-Diones, Preparation Method Thereof, And Pharmaceutical Composition Containing The Same” (KOREA RESEARCH INSTITUTE OF CHEMICAL TECHNOLOGY, priority 2005, published 2008).
# Where two headings read alike, the source gives them in different places.
# Key:
# 5-HT2c = target: T1, 5-HT2c (Homo sapiens, UniProt P28335); experiment: Radioligand binding, 5-HT2c ([3H]Mesulergine); conditions: Table 4; [3H]Mesulergine 1 nM; read-out: Binding affinity, IC50 (nM) 5-HT2c
# T1 construct: purchased Euroscreen/BioSignal Packard Inc
# T1 sequence (P28335 33-458): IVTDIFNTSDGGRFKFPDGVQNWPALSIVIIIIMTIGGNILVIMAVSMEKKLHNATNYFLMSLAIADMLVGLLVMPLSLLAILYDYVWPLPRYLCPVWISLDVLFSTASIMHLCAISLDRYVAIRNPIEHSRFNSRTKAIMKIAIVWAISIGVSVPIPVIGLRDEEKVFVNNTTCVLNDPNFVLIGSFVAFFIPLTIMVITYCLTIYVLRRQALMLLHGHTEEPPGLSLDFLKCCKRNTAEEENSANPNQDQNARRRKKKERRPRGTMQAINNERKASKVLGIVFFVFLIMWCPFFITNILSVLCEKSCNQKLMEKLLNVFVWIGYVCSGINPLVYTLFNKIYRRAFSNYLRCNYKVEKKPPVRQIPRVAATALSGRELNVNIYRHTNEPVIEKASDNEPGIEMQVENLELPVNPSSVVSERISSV
# 5-HT7 = target: T2, 5-HT7 (Homo sapiens, UniProt P34969); experiment: Radioligand binding, 5-HT7 ([3H]LSD); conditions: Table 4; [3H]LSD 3 nM; read-out: Binding affinity, IC50 (nM) 5-HT7
# T2 construct: purchased Euroscreen/BioSignal Packard Inc
# [1] = target: T3, Human serotonin 5-HT6 receptor (Homo sapiens, UniProt P50406); experiment: [3H]LSD binding assay on cloned 5-HT6 receptor membranes
# T3 construct: made in house; host or cells: insect Sf21 cells (baculovirus vector BacPAK8)
# 5-HT1a = target: T4, 5-HT1a (Homo sapiens, UniProt P08908); experiment: Radioligand binding, 5-HT1a ([3H]8-OH-DPAT); conditions: Table 4; [3H]8-OH-DPAT 0.5 nM; read-out: Binding affinity, IC50 (nM) 5-HT1a
# T4 construct: purchased Euroscreen/BioSignal Packard Inc
# T4 sequence (P08908 1-422): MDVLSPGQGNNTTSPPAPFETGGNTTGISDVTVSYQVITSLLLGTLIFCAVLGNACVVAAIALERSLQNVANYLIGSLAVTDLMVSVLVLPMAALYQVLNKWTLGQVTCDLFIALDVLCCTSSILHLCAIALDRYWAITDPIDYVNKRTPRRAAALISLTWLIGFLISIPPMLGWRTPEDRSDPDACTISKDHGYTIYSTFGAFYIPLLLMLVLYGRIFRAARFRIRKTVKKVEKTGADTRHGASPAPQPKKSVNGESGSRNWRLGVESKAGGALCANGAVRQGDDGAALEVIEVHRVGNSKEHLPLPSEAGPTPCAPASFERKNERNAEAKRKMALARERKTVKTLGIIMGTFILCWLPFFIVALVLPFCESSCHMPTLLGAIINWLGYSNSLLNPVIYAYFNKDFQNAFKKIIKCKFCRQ
# In short: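 Per manufacturer method: commercial membranes incubated with radioligand and test compound, bound label counted.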
# hD3 = target: T5, hD3 (Homo sapiens, UniProt P35462); experiment: Radioligand binding, dopamine D3 ([3H]spiperone); conditions: Table 4; [3H]spiperone 1 nM; read-out: Binding affinity, IC50 (nM) D3
# T5 construct: purchased BioSignal Packard Inc., Montreal, Canada
# In short: (§1)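 IC50 values come from nonlinear fits of three displacement experiments, each using 7-8 test concentrations in duplicate. D2L and D3 membranes were labelled with 1 nM [3H]spiperone, and D4.2 with 0.06 nM [3H]YM-09151-2. All assays used pH 7.4 Tris buffers, with the D3 buffer adding 120 mM NaCl, KCl and CaCl2.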
# hD4.2 receptor = target: T6, hD4.2 receptor (Homo sapiens, UniProt P21917, DEL265-296); experiment: Radioligand binding, dopamine D4 ([3H]YM-09151-2); conditions: Table 4; [3H]YM-09151-2 0.06 nM; read-out: Binding affinity, IC50 (nM) D4
# T6 construct: purchased BioSignal Packard Inc., Montreal, Canada
# T6 sequence (P21917 with tags, fused parts or gaps DEL265-296): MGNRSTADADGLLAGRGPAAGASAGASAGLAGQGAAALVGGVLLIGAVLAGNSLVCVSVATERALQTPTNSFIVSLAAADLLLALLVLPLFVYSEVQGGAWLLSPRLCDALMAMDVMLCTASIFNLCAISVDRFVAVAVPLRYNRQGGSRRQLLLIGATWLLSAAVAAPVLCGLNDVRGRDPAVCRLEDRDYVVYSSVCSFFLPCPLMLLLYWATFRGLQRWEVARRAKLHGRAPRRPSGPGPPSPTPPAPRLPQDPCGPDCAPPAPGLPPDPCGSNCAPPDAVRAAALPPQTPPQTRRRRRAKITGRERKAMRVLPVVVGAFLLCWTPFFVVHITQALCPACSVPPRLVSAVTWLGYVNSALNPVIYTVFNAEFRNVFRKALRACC
# In short: as §1
# 5-HT2a = target: T7, 5-HT2a (Homo sapiens, UniProt P28223); experiment: Radioligand binding, 5-HT2a ([3H]Ketanserin); conditions: Table 4; [3H]Ketanserin 1 nM; read-out: Binding affinity, IC50 (nM) 5-HT2a
# T7 construct: purchased Euroscreen/BioSignal Packard Inc
# D1 = D1 (Homo sapiens, UniProt P21728); experiment: Radioligand binding, dopamine D1; conditions: Table 4; read-out: Binding affinity, IC50 (nM) D1
# hD2L = target: T8, hD2L (Homo sapiens, UniProt P14416); experiment: Radioligand binding, dopamine D2 ([3H]spiperone); conditions: Table 4; [3H]spiperone 1 nM; read-out: Binding affinity, IC50 (nM) D2
# T8 construct: purchased BioSignal Packard Inc., Montreal, Canada
# In short: as §1
# Rotarod deficit in mice = type: in vivo, mouse; conditions: mouse, in vivo, po, unit printed as image, read-out: TD50 (median neurotoxic dose)
# Method: (§2) The mouse was placed on a 1 inch diameter knurled plastic rod rotating at 6 rpm (Ugo-Basile, Milano, Italy), and the rotarod deficit (%) was obtained by counting the number of animals fallen from the rotating rod within 1 min [Dunham et al., 1957] at 60, 90 and 120 min after the injection of the compound according to the invention(200, 300 or 400 ? ). […] The compounds of the examples were suspended in 3% Tween 80 solution, and were administered (p.o.) 60 min before the testing.
# mice = experiment: Rotarod deficit in mice; type: in vivo, mouse
# Method: as §2
# [2] = Table 2, 1.87 nM [3H]LSD, 37 C, 60 min, read-out: IC50 (nM), binding affinity to the 5-HT6 receptor
# [3] = Table 4, read-out: Binding affinity, IC50 (nM) 5-HT6
# T7 sequence (P28223 whole entry): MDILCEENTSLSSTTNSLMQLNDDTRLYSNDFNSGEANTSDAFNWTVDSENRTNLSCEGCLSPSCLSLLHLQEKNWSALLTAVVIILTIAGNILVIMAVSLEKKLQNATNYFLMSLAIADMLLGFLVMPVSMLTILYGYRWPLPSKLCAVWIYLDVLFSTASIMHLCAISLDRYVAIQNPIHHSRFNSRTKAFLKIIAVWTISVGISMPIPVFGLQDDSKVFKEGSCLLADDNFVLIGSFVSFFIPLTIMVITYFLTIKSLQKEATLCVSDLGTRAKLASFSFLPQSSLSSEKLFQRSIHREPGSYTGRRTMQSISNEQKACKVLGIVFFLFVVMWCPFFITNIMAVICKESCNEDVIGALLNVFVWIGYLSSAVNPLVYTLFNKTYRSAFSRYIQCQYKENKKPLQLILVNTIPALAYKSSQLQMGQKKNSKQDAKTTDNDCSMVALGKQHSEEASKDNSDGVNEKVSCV
# Sequence of D1 (P21728 whole entry): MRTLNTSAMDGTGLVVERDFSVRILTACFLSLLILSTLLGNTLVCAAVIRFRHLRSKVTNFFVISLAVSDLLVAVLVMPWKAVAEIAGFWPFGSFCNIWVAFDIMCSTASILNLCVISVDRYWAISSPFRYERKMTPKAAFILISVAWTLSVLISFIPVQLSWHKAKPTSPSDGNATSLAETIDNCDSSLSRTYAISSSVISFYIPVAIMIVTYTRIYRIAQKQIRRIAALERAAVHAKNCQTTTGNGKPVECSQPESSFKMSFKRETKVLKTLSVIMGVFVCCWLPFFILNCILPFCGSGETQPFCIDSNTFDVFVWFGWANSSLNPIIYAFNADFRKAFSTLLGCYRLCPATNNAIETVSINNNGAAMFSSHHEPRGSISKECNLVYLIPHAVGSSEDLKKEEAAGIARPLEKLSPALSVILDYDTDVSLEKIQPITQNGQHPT
# T2 sequence (P34969 whole entry): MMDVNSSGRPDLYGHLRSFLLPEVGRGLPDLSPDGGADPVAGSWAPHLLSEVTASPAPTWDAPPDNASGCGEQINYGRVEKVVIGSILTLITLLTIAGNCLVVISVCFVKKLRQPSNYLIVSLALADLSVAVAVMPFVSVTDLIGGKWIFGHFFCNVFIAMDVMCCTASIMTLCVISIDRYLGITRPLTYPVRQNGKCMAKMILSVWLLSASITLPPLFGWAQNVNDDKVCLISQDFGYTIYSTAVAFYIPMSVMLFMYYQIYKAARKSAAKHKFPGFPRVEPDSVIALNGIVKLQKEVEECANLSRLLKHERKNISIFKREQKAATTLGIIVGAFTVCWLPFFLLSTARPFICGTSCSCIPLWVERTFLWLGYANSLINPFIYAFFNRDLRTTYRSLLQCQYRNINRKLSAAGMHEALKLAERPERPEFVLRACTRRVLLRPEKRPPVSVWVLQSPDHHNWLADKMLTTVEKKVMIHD
# T5 sequence (P35462 whole entry): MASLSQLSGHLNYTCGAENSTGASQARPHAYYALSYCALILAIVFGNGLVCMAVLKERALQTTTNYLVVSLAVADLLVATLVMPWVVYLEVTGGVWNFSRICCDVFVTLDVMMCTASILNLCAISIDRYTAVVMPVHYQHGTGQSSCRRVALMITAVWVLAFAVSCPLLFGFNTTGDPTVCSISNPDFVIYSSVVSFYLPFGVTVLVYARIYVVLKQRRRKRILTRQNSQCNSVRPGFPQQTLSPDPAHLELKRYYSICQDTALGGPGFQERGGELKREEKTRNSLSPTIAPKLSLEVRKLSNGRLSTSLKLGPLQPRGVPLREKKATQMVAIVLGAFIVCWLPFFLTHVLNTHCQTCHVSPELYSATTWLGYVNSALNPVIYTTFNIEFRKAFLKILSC
# T8 sequence (P14416 whole entry): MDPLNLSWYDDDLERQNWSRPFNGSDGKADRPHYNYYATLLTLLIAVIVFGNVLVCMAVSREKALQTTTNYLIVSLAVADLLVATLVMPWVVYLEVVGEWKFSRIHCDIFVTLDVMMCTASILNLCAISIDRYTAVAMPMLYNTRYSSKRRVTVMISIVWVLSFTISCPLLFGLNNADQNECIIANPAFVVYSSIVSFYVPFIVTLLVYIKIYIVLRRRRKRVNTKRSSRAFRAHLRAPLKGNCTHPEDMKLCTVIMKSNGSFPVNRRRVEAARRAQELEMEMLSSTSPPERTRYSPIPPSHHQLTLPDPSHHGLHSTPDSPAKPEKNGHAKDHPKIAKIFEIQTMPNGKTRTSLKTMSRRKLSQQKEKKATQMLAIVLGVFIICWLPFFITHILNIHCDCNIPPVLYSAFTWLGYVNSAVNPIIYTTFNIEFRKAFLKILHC
# T3 sequence (P50406 whole entry): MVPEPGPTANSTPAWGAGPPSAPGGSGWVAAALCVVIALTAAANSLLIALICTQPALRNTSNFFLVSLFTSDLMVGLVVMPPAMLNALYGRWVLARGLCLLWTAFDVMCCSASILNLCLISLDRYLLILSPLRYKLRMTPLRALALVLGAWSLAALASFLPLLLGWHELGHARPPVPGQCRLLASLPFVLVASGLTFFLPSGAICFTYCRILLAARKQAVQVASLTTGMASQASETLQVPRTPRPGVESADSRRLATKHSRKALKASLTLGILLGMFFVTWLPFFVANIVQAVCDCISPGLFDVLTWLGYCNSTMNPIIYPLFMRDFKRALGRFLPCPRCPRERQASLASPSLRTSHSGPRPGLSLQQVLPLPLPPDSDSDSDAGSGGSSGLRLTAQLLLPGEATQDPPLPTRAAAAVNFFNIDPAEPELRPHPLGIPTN
Compound,IC50 (5-HT2c) [nM],IC50 (5-HT7) [nM],"IC50 [1, 2] [nM]","IC50 [1, 3] [nM]",IC50 (5-HT1a) [nM],IC50 (hD3) [nM],IC50 (hD4.2 receptor) [nM],IC50 (5-HT2a) [nM],melting point [°C],IC50 (D1) [nM],IC50 (hD2L) [nM],TD50 at 120 min (Rotarod deficit in mice) [mg/kg],Rotarod deficit (%) (mice; 200 p.o. (dose unit not given)),Rotarod deficit (%) (mice; 300 p.o. (dose unit not given)),Rotarod deficit (%) (mice; 400 p.o. (dose unit not given)),"binding affinity at 5-HT6 receptor labeled by [3H]LSD, in words ([1]; comment on Table 2)"
"CN1CCN(c2cc(Cl)cc3c2C(=O)C(C)(c2ccc(O)cc2)C(=O)N3Cc2ccccc2)CC1 (stereo not shown) [Example 2, 1-Benzyl-7-chloro-3-(4-hydroxy-phenyl)-3-methyl-5-(4-methyl-piperazin-1-yl)-1H-quinoline-2,4-dione]",487,920,2.5,2.5,> 10000,589,> 10000,2620,258 to 259,4970,> 10000,> 400,0,0,0,
"CN1CCN(c2cc(Cl)cc3c2C(=O)C(C)(c2ccc([N+](=O)[O-])cc2)C(=O)N3Cc2ccccc2)CC1 (stereo not shown) [Example 3, 1-Benzyl-7-chloro-3-methyl-5-(4-methyl-piperazin-1-yl)-3-(4-nitro-phenyl)-1H-quinolin-2,4-dione]",> 10000,4570,4.7,4.7,5730,360,> 10000,1540,179 to 180,814,> 10000,> 400,0,0,0,
"COc1ccc(C2(C)C(=O)c3c(N4CCN(C)CC4)cc(Cl)cc3N(Cc3cccc(N)c3)C2=O)cc1 (stereo not shown) [Example 9, 1-(3-Amino-benzyl)-7-chloro-3-(4-methoxy-phenyl)-3-methyl-5-(4-methyl-piperazin-1-yl)-1H-quinoline-2,4-dione]",> 10000,> 10000,5.2,5.2,> 10000,821,> 10000,> 10000,90 to 93,> 10000,> 10000,> 400,0,0,0,
"CN1CCN(c2cc(Cl)cc3c2C(=O)C(C)(c2ccccc2)C(=O)N3Cc2ccccc2)CC1 (stereo not shown) [Example 11, 1-Benzyl-7-chloro-3-methyl-5-(4-methyl-piperazin-1-yl)-3-phenyl-1H-quinoline-2,4-dione]",514,2200,1.4,1.4,2590,678,> 10000,1230,138 to 140,4670,844,> 400,0,0,0,significant affinities
